“And” between values parts separate entries of the source, which are not always exact repeats. Identical values can stand only once.
Tested on: 648629-189-R-J1-PDC spheroids with HUVEC/MSC, viability
Assay: Anticancer human tumor 648629-189-R-J1-PDC patient-derived bladder carcinoma cell line growth inhibition [PI3K]
Conditions: for viability, T/C: stronger effect = lower value
Source text: Combinatorial screen of targeted agents with the PI3K inhibitors inavolisib, alpelisib, duvelisib, and copanlisib in multi-cell type tumor spheroids
A high-throughput screen of multi-cell type tumor spheroids was designed to identify active combinations of targeted small molecules and PI3K pathway inhibitors. Complex spheroids include a stromal component modeled by human endothelial cells (HUVEC) and fibroblasts modeled by human mesenchymal stem cells (MSCs). The concentration ranges selected for each drug and investigational agent were based upon clinically achievable concentrations if the clinical Cmax of the agent was known.
Compounds. The drugs and investigational agents: inavolisib (NSC800729), alpelisib (NSC765974), duvelisib (NSC772469), copanlisib (NSC816437), ipatasertib (NSC767898), afuresertib (NSC778305), talazoparib (NSC767125), sapanisertib (NSC764658), selumetinib (NSC741078), tovorafenib (DAY101, NSC766906), vemurafenib (NSC761431), ravoxertinib (NSC781343), sotorasib (NSC818433), MRTX1133 (NSC 836407), abemaciclib (NSC 768073), palbociclib (NSC758247), venetoclax (NSC 766270), SY5609 (NSC837396), enzalutamide (NSC755605), and darolutamide (NSC825331), were obtained from the National Cancer Institute (NCI) Developmental Therapeutics Program Chemical Repository. The FDA-approved anticancer drug set is available from the NCI Developmental Therapeutics Program. […] The stock solutions were prepared in dimethyl sulfoxide (DMSO, Sigma-Aldrich, St. Louis, MO, cat. D2650) at 800-fold the tested concentration and stored at -70 degrees C prior to their use. All drugs and investigational agents were tested over a range starting from a high concentration at or near the clinical Cmax and decreasing in half-log increments. If the clinical Cmax for an agent had not been determined, the highest concentration tested was 10 microM.
Cell Culture. All cells were maintained in an incubator at 37 degrees C and 5% CO2 with 95% humidity. The PDC lines were cultured according to standard operating procedures established by the NCI PDMR (https://pdmr.cancer.gov/sops/default.htm). All PDCs were thawed and cultured in Matrigel-coated flasks prepared with a working solution of 1X Ham's F-12 nutrient mix, without supplementation (Invitrogen, Waltham, MA, cat. 11765054), 100 U/mL penicillin-streptomycin (Invitrogen, cat. 15140122), and 2.5% Matrigel (Corning Inc., Corning, NY, cat. 354248) for the first three passages. The 354836-022-R-J1-PDC, 475296-252-R-J1-PDC, and 997726-040-R-J2-PDC lines were cultured in 6A media, which includes advanced DMEM/F-12 (Thermo Fisher Scientific, cat. 12634028), 10 mM HEPES (Thermo Fisher Scientific, cat. 15630080), 1X GlutaMAX supplement (Thermo Fisher Scientific, cat. 35050061), 0.1 mg/mL primocin (InvivoGen, San Diego, CA, cat. ant-pm-2), 10% defined fetal bovine serum, heat inactivated (HyClone Laboratories Inc., Logan, UT, cat. SH30070.03HI), 50% L-WRN conditioned media (ATCC, cat. CRL-3276), 1.25 mM N-Acetyl-L-cysteine (Sigma-Aldrich, cat. A9165), 10 mM nicotinamide (Sigma-Aldrich, cat. N0636), 1X B-27 supplement (Thermo Fisher Scientific, cat. 17504044), 1X N-2 supplement (Thermo Fisher Scientific, cat. 17502048), and 10 microM Y-27632 dihydrochloride (Tocris Bioscience, Bristol, United Kingdom, cat. 1254). The 624824-186-R-J2-PDC line was cultured in 6C/Colon 1B media, which includes all 6A media components plus 50 ng/mL human EGF recombinant protein (Thermo Fisher Scientific, cat. PHG0311). […]
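Further: spheroids exposed to agents for seven days before reading.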
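Wherever viability, T/C is given: percent of vehicle control luminescence where 100% = DMSO treated spheroids.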

Cn1cnc2c(F)c(Nc3ccc(Br)cc3Cl)c(C(=O)NOCCO)cc21 + CC(Nc1ccc2c(c1)OCCn1cc(N3C(=O)OCC3C(F)F)nc1-2)C(N)=O
IC50 (curve of first compound, second compound 0.00316 µM): > 3 µM
IC50 (curve of first compound, second compound 0.01 µM): > 3 µM
IC50 (curve of first compound, second compound 0.0316 µM): > 3 µM
IC50 (curve of first compound, second compound 0.1 µM): > 3 µM
IC50 (curve of first compound, second compound 0.316 µM): > 3 µM
IC50 (curve of first compound, second compound 1 µM): > 3 µM
viability, T/C (second compound 0.00316 µM, first compound 0.00949 µM): 95.5%
viability, T/C (second compound 0.00316 µM, first compound 0.03 µM): 103%
viability, T/C (second compound 0.00316 µM, first compound 0.0949 µM): 99.2%
viability, T/C (second compound 0.00316 µM, first compound 0.3 µM): 91.8%
viability, T/C (second compound 0.00316 µM, first compound 0.949 µM): 94.4%
viability, T/C (second compound 0.00316 µM, first compound 3 µM): 81.6%
viability, T/C (second compound 0.01 µM, first compound 0.00949 µM): 93.4%
viability, T/C (second compound 0.01 µM, first compound 0.03 µM): 91.2%
viability, T/C (second compound 0.01 µM, first compound 0.0949 µM): 92.9%
viability, T/C (second compound 0.01 µM, first compound 0.3 µM): 91.8%
viability, T/C (second compound 0.01 µM, first compound 0.949 µM): 103%
viability, T/C (second compound 0.01 µM, first compound 3 µM): 81.1%
viability, T/C (second compound 0.0316 µM, first compound 0.00949 µM): 98.5%
viability, T/C (second compound 0.0316 µM, first compound 0.03 µM): 96.2%
viability, T/C (second compound 0.0316 µM, first compound 0.0949 µM): 87.5%
viability, T/C (second compound 0.0316 µM, first compound 0.3 µM): 89.3%
viability, T/C (second compound 0.0316 µM, first compound 0.949 µM): 95.2%
viability, T/C (second compound 0.0316 µM, first compound 3 µM): 79.2%
viability, T/C (second compound 0.1 µM, first compound 0.00949 µM): 90.7%
viability, T/C (second compound 0.1 µM, first compound 0.03 µM): 91.7%
viability, T/C (second compound 0.1 µM, first compound 0.0949 µM): 82.6%
viability, T/C (second compound 0.1 µM, first compound 0.3 µM): 92.2%
viability, T/C (second compound 0.1 µM, first compound 0.949 µM): 93.9%
viability, T/C (second compound 0.1 µM, first compound 3 µM): 75.8%
viability, T/C (second compound 0.316 µM, first compound 0.00949 µM): 81.1%
viability, T/C (second compound 0.316 µM, first compound 0.03 µM): 79.2%
viability, T/C (second compound 0.316 µM, first compound 0.0949 µM): 70.3%
viability, T/C (second compound 0.316 µM, first compound 0.3 µM): 78.5%
viability, T/C (second compound 0.316 µM, first compound 0.949 µM): 74.3%
viability, T/C (second compound 0.316 µM, first compound 3 µM): 69.1%
viability, T/C (second compound 1 µM, first compound 0.00949 µM): 66.1%
viability, T/C (second compound 1 µM, first compound 0.03 µM): 70.4%
viability, T/C (second compound 1 µM, first compound 0.0949 µM): 66.4%
viability, T/C (second compound 1 µM, first compound 0.3 µM): 96.4%
viability, T/C (second compound 1 µM, first compound 0.949 µM): 66%
viability, T/C (second compound 1 µM, first compound 3 µM): 51%

CNC(=O)c1ccc(N2C(=S)N(c3ccc(C#N)c(C(F)(F)F)c3)C(=O)C2(C)C)cc1F
viability, T/C (compound 0.0316 µM): 107% (2×) and 95.9% and 101%
viability, T/C (compound 0.1 µM): 98.2% [middle of 4 runs]
viability, T/C (compound 0.316 µM): 107% [middle of 4 runs]
viability, T/C (compound 1 µM): 105% [middle of 4 runs]
viability, T/C (compound 3.16 µM): 92.6% and 104% (2×) and 108%
viability, T/C (compound 10 µM): 91% [middle of 4 runs]
IC50 (curve of compound): > 10 µM

— PubChem BioAssay AID1963974 (Molecular Pharmacology Branch, DTP, NCI, 2024)
